Laboratory results from US12636292B2, “Method and composition for reversing and/or inhibiting atherosclerosis” (ARJIL BIOTECH HOLDING COMPANY LIMITED, priority 2019, dated 2026).

Legend:
[1] = Body weight in hypercholesterolemic rabbit model; format: in vivo; conditions: rabbits on chow with 0.5% cholesterol plus 1% extract, 10 mg/kg pure compound or 10 mg/kg lovastatin; during the intervention
Procedure: (§1) 2 to 3 kg male, New Zealand White rabbits were individually caged and housed in temperature and humidity-controlled rooms. Light-dark cycles were 12 h each. After several days of acclimation, the animals were sequentially assigned to six feeding groups: standard rabbit chow (ND), standard rabbit chow containing 0.5% cholesterol (HF), standard rabbit chow containing both 0.5% cholesterol and 10 mg/kg Lovastatin (L), standard rabbit chow containing both 0.5% cholesterol and 1% ARH003 (ARH003), standard rabbit chow containing both 0.5% cholesterol and 1% ARH004 (ARH004), standard rabbit chow containing both 0.5% cholesterol and 10 mg/kg Pure compound (P).
(§2) Except standard rabbit chow, others groups were given standard rabbit chow containing 0.5% cholesterol for 4 weeks. The daily feeding amount for each rabbit was 50 g/kg body weight per day.
(§3) Diets were administered for 8 weeks, after the animals had adjusted to their new environment. At the beginning and end of the 12 weeks study, the rabbits were anesthetized by an intramuscular injection of Zoletil 50 (1 mL/kg) (Virbac Ltd., France), and blood samples were harvested. Finally, the aortas (from aortic arch to the bifurcation of the iliac arteries) and whole livers were collected from the rabbits after they were sacrificed for further histopathological analyses.

[2] = Blood chemistry analysis (serum triglyceride, total cholesterol) in hypercholesterolemic rabbits; format: in vivo, rabbit; conditions: week 12; rabbits on 0.5% cholesterol chow plus 1% extract, 10 mg/kg pure compound or 10 mg/kg lovastatin; vs high fat diet group
Procedure: as §1, §2, §3
The animals were fasted overnight before blood drawing. […]

[3] = DPPH free radical scavenging assay; format: biochemical
Procedure: The antioxidant capacity of antcin K was examined by 1,1-diphenyl-2-trinitrophenylhydrazyl (DPPH) assay in this study. We formulated DPPH (D9132, Sigma-Aldrich Co., St. Louis, MO, USA) at a concentration of 1.5 mM per 1 mL and added 9 mL of methanol (322415, Sigma-Aldrich Co., St. Louis, MO, USA) to the mixed solution. The 100 μL of DPPH and 100 μL of 10, 20, and 50 μg/mL of test samples were taken, shaken, and mixed evenly, then placed at room temperature for 30 min in the dark. After that, the absorbance was measured at 517 nm using an ultraviolet/visible light spectrometer (Microplate Spectrophotometer, uQuant, Biotek Instruments, Inc., Winooski, VT, USA).
Different concentrations of test samples were prepared and compared with the standard L-Ascorbic acid (L-AA) (A5960, Sigma-Aldrich Co., St. Louis, MO, USA). Based on the reduction percentage of the absorbance value observed in the control group, the antioxidant capacity of each test sample to scavenge DPPH free radicals can be judged. After that, the test sample with the most robust ability to scavenge DPPH free radicals was selected and repeated three times. The formula is as follows: DPPH free radical scavenging rate (%)=(1−(absorption value of experimental group/absorption value of control group))×100.

[4] = system: SVEC4-10 vascular endothelial cells; test: MTT cell viability assay; format: cell-based; conditions: for cell viability of vascular endothelial cells: sham = 100%
Procedure: (§4) Vascular endothelial cells (SVEC4-10) were purchased from the Cell Bank of Hsin-Chu Food Industry Development Institute (FIRDI, Cat no: BCRC-60220). SVEC4-10 cells were cultured in high-glucose DMEM (Dulbecco's Modified Eagle Medium) (Gibco BRL, Grand Island, NY, USA) and supplemented with 10% Fetal Bovine Serum (FBS) (HyClone, Logan, UT, USA), 1.5 g/L sodium bicarbonate, 0.11 g/L sodium pyruvate, 4 mM L-glutamine, 100 U/mL penicillin, and 100 μg/mL streptomycin (Gibco BRL, Grand Island, NY, USA).
(§5) These cells were grown in a culture medium and maintained in a humidified incubator at 37° C. and 5% CO2. Vascular endothelial cells were digested with 0.25% trypsin (Gibco BRL, Grand Island, NY, USA) for approximately 1 min until most cells detached. All cell densities were adjusted to 1×10^5 cells per well for each 24-well culture plate. After vascular endothelial cells were cultured for 24 h, in the hyperlipidemia group, 0.75 mM palm acid oil (CAS 57-10-3-800508; Sigma-Aldrich Co., St. Louis, MO, USA) (Oh et al., 2018) was added, and 10, 20, and 50 μg/mL of antcin K in each experiment was individually added.
We used a 3-(4,5-Dimethylthiazol-2-yl)-2,5-diphenyltetrazolium bromide (MTT) assay to examine the cell viability of antcin K in this study. A total of 1×10^5 cells/mL SVEC4-10 cells were added to a 24-well plate, and 0.5 mM palm acid oil (Sigma-Aldrich Co., St. Louis, MO, USA) was partially added, and 10, 20, and 50 μg/mL of test samples were added to SVEC4-10 cells, followed by culturing within 24 h. After adding 0.5 mg/mL of MTT solution (M5655, Sigma-Aldrich Co., St. Louis, MO, USA) and culturing for 2 h, the supernatant was removed, and 100 μL/well of DMSO organic solvent was added, followed by a 5 min shaking and then absorbance measurement at 570 nm.

TNF-α [5] = test: ELISA of TNF-α in palm acid oil-treated vascular endothelial cells; format: cell-based, mouse
Procedure: as §4, §5
(§6) We analyzed the content of inflammatory cytokines by ELISA. The supernatant of SVEC4-10 cells with palm acid oil hyperlipidemia treatment was collected after 24 h of culture and added to a 96-well micro-well plate (Thermo Scientific Nunc®, Nunc AS, Copenhagen, Denmark). An amount of 100 μL/well of carbonate buffer containing antibodies of 32 ng/mL purified rat anti-mouse TNF-α (88-7324; Invitrogen, Carlsbad, CA, USA) or 32 ng/mL purified rat anti-mouse IL-1_(88-7013; Invitrogen, Carlsbad, CA, USA) was added to each well and kept at 4° C. overnight. After that, we washed three times with 0.05% phosphate-buffered saline with Tween 20 (PBST) buffer to remove unbound monoclonal antibodies. Then, we added 200 μL/well of blocking solution to reduce nonspecific binding. […] The reaction was terminated with 2% H2SO4, and the absorbance at 450-570 nm was measured.

IL-1β [6] = test: ELISA of IL-1β in palm acid oil-treated vascular endothelial cells; format: cell-based, mouse
Procedure: as §4, §5, §6

VCAM-1 = test: Immunofluorescence staining of VCAM-1 in vascular endothelial cells; format: cell-based, mouse; conditions: 20 μg/mL with 0.75 mM palm acid oil; p<0.01
RAW264.7 macrophages = test: Cellular migration assay (transwell); format: cell-based; conditions: 48 h
Procedure: RAW264.7 macrophage was purchased from the Hsin-Chu Food Industry Development Institute Cell Bank (FIRDI, Cat no: BCRC-60001). The cell culture medium contains high-glucose DMEM (Gibco BRL, Grand Island, NY, USA), 10% FBS, 1.5 g/L sodium bicarbonate, 0.11 g/L sodium pyruvate, 4 mM L-glutamine, 100 U/mL penicillin, and 100 μg/mL streptomycin. These cells were maintained in a humidified incubator at 37° C. and 5% CO2. After collecting the cells with a spatula, for each 24-well culture plate, all cell densities were adjusted to 1×10^5 cells per well for migration assays.
We used a cellular migration assay to examine the cellular migration ability of RAW 264.7 macrophages toward vascular endothelial cells with high-fat damage. The cellular migration assay has been clearly described in a previous report (Hwang et al., 2021). Transwells (Corning, New York, NY, USA) with 8.0 μm pore size were used in this experiment for cell migration assays. In total, 1×10^5 RAW264.7 macrophage, labeled with the red fluorescent dye of 1,1′-Dioctadecyl-6,6′-Di(4-Sulfophenyl) (SP-Di1C18(3)), was added to the upper layer of transwell after 48 h. […] Images were taken with a fluorescence microscope (Leica Microsystems, Wetzlar, Germany), and analysis was performed using Leica Application Suite software (LAS) V4.12 s (Leica Microsystems, Wetzlar, Germany) after 48 h of culture.

TNF-α [7] = test: ELISA of TNF-α in RAW264.7 macrophages; format: cell-based, mouse; conditions: 20 μg/mL with 0.75 mM palm acid oil (856.9 without)
IL-1β [8] = test: ELISA of IL-1β in RAW264.7 macrophages; format: cell-based, mouse; conditions: 20 μg/mL with 0.75 mM palm acid oil (272.3 without)
[9] = system: vascular endothelial cells; test: Cellular lipid deposition assay (oil red O staining); format: cell-based; conditions: different concentrations of antcin K
Procedure: We used oil red O staining which was clearly described in a previous report (Luo et al., 2021) to examine cellular lipid deposition. RAW264.7 macrophages were fixed with 2% paraformaldehyde for 10-15 min at room temperature, washed three times with phosphate-buffered saline (PBS) and twice with ddH2O, and stained with 5% oil red O dye for 15 min at room temperature, then the supernatant was discarded. Vascular endothelial cells and RAW264.7 macrophages were infiltrated with 60% isopropanol, washed twice with ddH2O, and photographed with an optical microscope (Olympus BH2 system light microscope, Olympus Corporation, Tokyo, Japan).

CD36 = test: Immunofluorescence staining of CD36 in vascular endothelial cells; format: cell-based, mouse; conditions: 20 μg/mL with 0.75 mM palm acid oil
Procedure: as §4
(§7) These cells were grown in a culture medium and maintained in a humidified incubator at 37° C. and 5% CO2. […]
(§8) We used immunofluorescence staining to examine expressions of KLF4 and CD36. […] Note that this step needs to be protected from light at the beginning Nuclei were stained with 1 μg/mL diamino-2-phenilindole (DAPI) (D3286, Sigma-Aldrich Co., St. Louis, MO, USA) for 10 min at room temperature after washing three times with PBS and mounted with a fluorescent protectant-containing adhesive to reduce fluorescence decay. Fluorescent images were obtained using a Leica DM IRB inverted fluorescence microscope (Leica Microsystems, Wetzlar, Germany), and analysis was performed using Leica Application Suite software (LAS) V4.12 s (Leica Microsystems, Wetzlar, Germany). The Rhodamine fluorescence-labeled cytoskeleton was visualized at 565 nm by exciting cells at 540 nm. […]

KLF4 = test: Immunofluorescence staining of KLF4 in vascular endothelial cells; format: cell-based, mouse; conditions: 20 μg/mL with 0.75 mM palm acid oil; p<0.01
Procedure: as §4, §7, §8

In the case of `CC[C@H](C)C(=O)O[C@H]1C[C@@H](C)C=C2C=C[C@H](C)[C@H](CC[C@@H]3C[C@@H](O)CC(=O)O3)[C@H]21` [lovastatin], the body weight gains [1] is reported as “did not affect” and the “serum total cholesterol levels” value [2] is reported as “higher”.

In the case of `C=C(CC[C@@H](C)[C@H]1CC[C@H]2C3=C(C(=O)C[C@]12C)[C@@]1(C)CC[C@H](O)[C@](C)(O)C1CC3O)C(C)C(=O)O` (stereo partly shown) [antcin K, 3a,4b,7b-tri-hydroxy4a-methylergosta-8,24(28)-dien-11-on-26-oic acid], the “free radicals scavenging efficiency (DPPH)” value ([3]; 20 μg/mL) is reported as 96.82%, the “free radicals scavenging efficiency (DPPH)” value ([3]; 50 μg/mL) is reported as 98.81% and the “cell viability of vascular endothelial cells” value ([4]; 10 μg/mL with 0.75 mM palm acid oil) is reported as 71.5%. The “cell viability of vascular endothelial cells” value ([4]; 20 μg/mL with 0.75 mM palm acid oil) was 84.6%, the “cell viability of vascular endothelial cells” value ([4]; 50 μg/mL with 0.75 mM palm acid oil) was 109.2% and the “change of cell viability of vascular endothelial cells” value ([4]; 10, 20 and 50 μg/mL without palm acid oil damage) was “not very obvious”. For the same compound, the IC50 ([4]; Mus musculus, SVEC4-10, antcin K treatment 0-50 μg/mL, MTT) was over 50 µg/mL, the “expression of TNF-α of vascular endothelial cells” value (TNF-α [5]; 10 μg/mL with 0.75 mM palm acid oil (285.5 without)) was 178.8 pg/mL and the “expression of TNF-α of vascular endothelial cells” value (TNF-α [5]; 20 μg/mL with 0.75 mM palm acid oil (285.5 without)) was 180.3 pg/mL. For the same compound, the “expression of TNF-α of vascular endothelial cells” value (TNF-α [5]; 50 μg/mL with 0.75 mM palm acid oil (285.5 without)) was 181.0 pg/mL, the “expression of IL-1β of vascular endothelial cells” value (IL-1β [6]; 10 μg/mL with 0.75 mM palm acid oil (86.6 without)) was 70.2 pg/mL and the “expression of IL-1β of vascular endothelial cells” value (IL-1β [6]; 20 μg/mL with 0.75 mM palm acid oil (86.6 without)) was 69.3 pg/mL. The “expression of IL-1β of vascular endothelial cells” value (IL-1β [6]; 50 μg/mL with 0.75 mM palm acid oil (86.6 without)) was 71.5 pg/mL, the “expression of VCAM-1 in palm acid oil-treated vascular endothelial cells” value (VCAM-1) was “significantly decreased” and the “migration of RAW264.7 macrophages to palm acid oil-treated vascular endothelial cells” value (RAW264.7 macrophages) was “enhanced”. For the same compound, the “expression of TNF-α of RAW264.7 macrophages” value (TNF-α [7]) was 690.7 pg/mL, the “expression of IL-1β of RAW264.7 macrophage cells” value (IL-1β [8]) was 189.2 pg/mL and the “lipid deposition in palm acid oil-treated vascular endothelial cells” value [9] was “decreased”. The “expression of CD36 in palm oil-treated vascular endothelial cells” value (CD36) was “decreased” and the “expression of KLF4 in palm acid oil-treated vascular endothelial cells” value (KLF4) was “significantly increased”.
